According to ChEMBL document CHEMBL5257145, “1,2,4-Triazine Derivatives as NLRP3 Inhibitors for Treating Diseases” (ACS Med Chem Lett, 2023):

molecular target: NACHT, LRR and PYD domains-containing protein 3 (Homo sapiens, UniProt Q96P20); assay: Inhibition of NLRP3 inflammasome activation in PMA-differentiated human THP-1 cells assessed as reduction in IL-1beta secretion preincubated for 20 hrs followed by nigericin addition and measured after 3 hrs by HTRF assay; assay type: cell-based
Sequence (Q96P20 whole entry, the tested form may be a part): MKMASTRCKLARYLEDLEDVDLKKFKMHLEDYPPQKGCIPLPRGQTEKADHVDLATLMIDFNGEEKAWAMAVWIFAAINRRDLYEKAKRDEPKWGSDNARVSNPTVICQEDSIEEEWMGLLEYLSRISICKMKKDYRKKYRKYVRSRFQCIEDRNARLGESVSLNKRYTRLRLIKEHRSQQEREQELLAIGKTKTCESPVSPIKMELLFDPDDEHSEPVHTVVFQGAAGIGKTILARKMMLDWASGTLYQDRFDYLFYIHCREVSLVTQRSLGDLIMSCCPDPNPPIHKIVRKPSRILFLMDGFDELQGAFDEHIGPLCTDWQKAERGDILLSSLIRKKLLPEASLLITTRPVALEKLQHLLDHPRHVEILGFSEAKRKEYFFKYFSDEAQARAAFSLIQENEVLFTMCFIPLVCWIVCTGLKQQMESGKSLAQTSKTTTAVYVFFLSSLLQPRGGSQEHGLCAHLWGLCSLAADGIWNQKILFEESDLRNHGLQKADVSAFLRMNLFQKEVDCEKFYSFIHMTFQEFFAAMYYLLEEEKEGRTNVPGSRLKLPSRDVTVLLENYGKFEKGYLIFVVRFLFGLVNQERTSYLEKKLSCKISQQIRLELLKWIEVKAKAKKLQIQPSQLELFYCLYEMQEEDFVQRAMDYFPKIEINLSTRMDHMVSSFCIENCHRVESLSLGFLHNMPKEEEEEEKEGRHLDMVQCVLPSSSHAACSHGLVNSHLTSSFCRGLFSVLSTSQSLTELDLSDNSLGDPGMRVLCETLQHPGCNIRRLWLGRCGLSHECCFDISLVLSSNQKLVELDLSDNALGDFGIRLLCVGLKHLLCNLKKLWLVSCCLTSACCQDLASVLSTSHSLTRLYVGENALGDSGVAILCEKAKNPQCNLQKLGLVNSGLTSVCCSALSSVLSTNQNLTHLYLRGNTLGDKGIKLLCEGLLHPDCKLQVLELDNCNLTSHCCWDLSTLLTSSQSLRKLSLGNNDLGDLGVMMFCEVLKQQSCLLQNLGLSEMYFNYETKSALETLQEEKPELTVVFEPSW

| SMILES | IC50 [nM] |
| --- | --- |
| Cc1cc(O)c(-c2nnc(N[C@@H]3CCCN(C)C3)nc2C)c(F)c1 | < 1 |
| Cc1nc(N[C@@H]2CCCN(C)C2)nnc1-c1ccc(Cl)cc1O | < 1 |
| COc1ccc(-c2nnc(N[C@@H]3CCCN(C)C3)nc2C)c(O)c1 | < 1 |
| Cc1nc(N[C@@H]2CCCN(C)C2)nnc1-c1ccc(C(F)(F)F)cc1O | < 1 |
| COc1cc(O)c(-c2nnc(N[C@@H]3CCCN(C)C3)nc2C)c(F)c1 | < 1 |
| Cc1nc(N[C@@H]2CCCN(C)C2)nnc1-c1ccc(C2CC2)cc1O | < 1 |
